Measurements published in PubChem BioAssay AID1963837 (Molecular Pharmacology Branch, DTP, NCI, 2024).

System: 843126-344-R-J1-PDC complex spheroid viability
Test: Anticancer human tumor 843126-344-R-J1-PDC patient-derived melanoma cell line growth inhibition [POLQ]
Settings: for IC50: curve of first compound; for viability, T/C: stronger effect = lower value
Summary of the method: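 Growth inhibition in 3D: complex spheroids (tumor PDC, HUVEC, MSC) treated with POLQ inhibitor combinations; where Cmax unknown, highest tested concentration 10 microM, except SN-38 at 1 microM.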

[1] = second compound 0.0316 µM, first compound 0.0316 µM
[2] = second compound 0.0316 µM, first compound 0.1 µM
[3] = second compound 0.0316 µM, first compound 0.316 µM
[4] = second compound 0.0316 µM, first compound 1 µM
[5] = second compound 0.0316 µM, first compound 3.16 µM
[6] = second compound 0.0316 µM, first compound 10 µM
[7] = second compound 0.1 µM, first compound 0.0316 µM
[8] = second compound 0.1 µM, first compound 0.1 µM
[9] = second compound 0.1 µM, first compound 0.316 µM
[10] = second compound 0.1 µM, first compound 1 µM
[11] = second compound 0.1 µM, first compound 3.16 µM
[12] = second compound 0.1 µM, first compound 10 µM
[13] = second compound 0.316 µM, first compound 0.0316 µM
[14] = second compound 0.316 µM, first compound 0.1 µM
[15] = second compound 0.316 µM, first compound 0.316 µM
[16] = second compound 0.316 µM, first compound 1 µM
[17] = second compound 0.316 µM, first compound 3.16 µM
[18] = second compound 0.316 µM, first compound 10 µM
[19] = second compound 1 µM, first compound 0.0316 µM
[20] = second compound 1 µM, first compound 0.1 µM
[21] = second compound 1 µM, first compound 0.316 µM
[22] = second compound 1 µM, first compound 1 µM
[23] = second compound 1 µM, first compound 3.16 µM
[24] = second compound 1 µM, first compound 10 µM
[25] = second compound 3.16 µM, first compound 0.0316 µM
[26] = second compound 3.16 µM, first compound 0.1 µM
[27] = second compound 3.16 µM, first compound 0.316 µM
[28] = second compound 3.16 µM, first compound 1 µM
[29] = second compound 3.16 µM, first compound 3.16 µM
[30] = second compound 3.16 µM, first compound 10 µM
[31] = second compound 10 µM, first compound 0.0316 µM
[32] = second compound 10 µM, first compound 0.1 µM
[33] = second compound 10 µM, first compound 0.316 µM
[34] = second compound 10 µM, first compound 1 µM
[35] = second compound 10 µM, first compound 3.16 µM
[36] = second compound 10 µM, first compound 10 µM
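For viability, T/C in this document: spheroids exposed to drugs for seven days before readout.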

Structure (SMILES): CC(=O)O[C@H]1C(=O)[C@@]2(C)[C@H]([C@H](OC(=O)c3ccccc3)[C@]3(O)C[C@H](OC(=O)[C@H](O)[C@@H](NC(=O)c4ccccc4)c4ccccc4)C(C)=C1C3(C)C)[C@]1(OC(C)=O)CO[C@@H]1C[C@@H]2O + Nc1ccc(C#CCN(C(=O)Cc2ncc(C(F)(F)F)cc2C(F)(F)F)c2ccc(F)cc2)nn1
- IC50 (second compound 0.0316 µM): > 3 µM
- IC50 (second compound 0.1 µM): > 3 µM
- IC50 (second compound 0.316 µM): > 3 µM
- IC50 (second compound 1 µM): > 3 µM
- IC50 (second compound 3.16 µM): > 3 µM
- IC50 (second compound 10 µM): > 3 µM
- viability, T/C (second compound 0.0316 µM, first compound 0.00949 µM): 65.6%
- viability, T/C (second compound 0.0316 µM, first compound 0.03 µM): 58.7%
- viability, T/C (second compound 0.0316 µM, first compound 0.0949 µM): 65%
- viability, T/C (second compound 0.0316 µM, first compound 0.3 µM): 65.8%
- viability, T/C (second compound 0.0316 µM, first compound 0.949 µM): 68.5%
- viability, T/C (second compound 0.0316 µM, first compound 3 µM): 69.6%
- viability, T/C (second compound 0.1 µM, first compound 0.00949 µM): 65.6%
- viability, T/C (second compound 0.1 µM, first compound 0.03 µM): 53.5%
- viability, T/C (second compound 0.1 µM, first compound 0.0949 µM): 56.7%
- viability, T/C (second compound 0.1 µM, first compound 0.3 µM): 61.5%
- viability, T/C (second compound 0.1 µM, first compound 0.949 µM): 78.6%
- viability, T/C (second compound 0.1 µM, first compound 3 µM): 61.2%
- viability, T/C (second compound 0.316 µM, first compound 0.00949 µM): 68.1%
- viability, T/C (second compound 0.316 µM, first compound 0.03 µM): 53.4%
- viability, T/C (second compound 0.316 µM, first compound 0.0949 µM): 70.7%
- viability, T/C (second compound 0.316 µM, first compound 0.3 µM): 61.6%
- viability, T/C (second compound 0.316 µM, first compound 0.949 µM): 64.8%
- viability, T/C (second compound 0.316 µM, first compound 3 µM): 73.5%
- viability, T/C (second compound 1 µM, first compound 0.00949 µM): 67.2%
- viability, T/C (second compound 1 µM, first compound 0.03 µM): 57.1%
- viability, T/C (second compound 1 µM, first compound 0.0949 µM): 62.2%
- viability, T/C (second compound 1 µM, first compound 0.3 µM): 55.6%
- viability, T/C (second compound 1 µM, first compound 0.949 µM): 62.8%
- viability, T/C (second compound 1 µM, first compound 3 µM): 62.7%
- viability, T/C (second compound 3.16 µM, first compound 0.00949 µM): 69.3%
- viability, T/C (second compound 3.16 µM, first compound 0.03 µM): 62.1%
- viability, T/C (second compound 3.16 µM, first compound 0.0949 µM): 54.9%
- viability, T/C (second compound 3.16 µM, first compound 0.3 µM): 59.8%
- viability, T/C (second compound 3.16 µM, first compound 0.949 µM): 63.7%
- viability, T/C (second compound 3.16 µM, first compound 3 µM): 61.5%
- viability, T/C (second compound 10 µM, first compound 0.00949 µM): 65.5%
- viability, T/C (second compound 10 µM, first compound 0.03 µM): 57.6%
- viability, T/C (second compound 10 µM, first compound 0.0949 µM): 61.5%
- viability, T/C (second compound 10 µM, first compound 0.3 µM): 61.3%
- viability, T/C (second compound 10 µM, first compound 0.949 µM): 60.2%
- viability, T/C (second compound 10 µM, first compound 3 µM): 61.8%

Structure (SMILES): CC(C)n1c(=O)n(C)c2cnc3cc(F)c(-c4ccc(OCCCN5CCCCC5)nc4)cc3c21 + COC1C(OC(N)=O)C(O)C(Oc2ccc3c(O)c(NC(=O)c4ccc(O)c(CC=C(C)C)c4)c(=O)oc3c2C)OC1(C)C
- IC50 (second compound 0.0316 µM): > 10 µM
- IC50 (second compound 0.1 µM): > 10 µM
- IC50 (second compound 0.316 µM): > 10 µM
- IC50 (second compound 1 µM): > 10 µM
- IC50 (second compound 3.16 µM): > 10 µM
- IC50 (second compound 10 µM): > 10 µM
- viability, T/C [1]: 79.6%
- viability, T/C [2]: 85.9%
- viability, T/C [3]: 94.7%
- viability, T/C [4]: 86.4%
- viability, T/C [5]: 77.2%
- viability, T/C [6]: 70.5%
- viability, T/C [7]: 81.1%
- viability, T/C [8]: 69.3%
- viability, T/C [9]: 85%
- viability, T/C [10]: 94.8%
- viability, T/C [11]: 74.8%
- viability, T/C [12]: 76.1%
- viability, T/C [13]: 90.8%
- viability, T/C [14]: 76.2%
- viability, T/C [15]: 79.8%
- viability, T/C [16]: 91.1%
- viability, T/C [17]: 70.3%
- viability, T/C [18]: 67.8%
- viability, T/C [19]: 95.5%
- viability, T/C [20]: 82.4%
- viability, T/C [21]: 76.3%
- viability, T/C [22]: 78%
- viability, T/C [23]: 87.6%
- viability, T/C [24]: 69.6%
- viability, T/C [25]: 68.8%
- viability, T/C [26]: 82.8%
- viability, T/C [27]: 80.4%
- viability, T/C [28]: 101%
- viability, T/C [29]: 77.3%
- viability, T/C [30]: 66.4%
- viability, T/C [31]: 79%
- viability, T/C [32]: 80.4%
- viability, T/C [33]: 81.7%
- viability, T/C [34]: 79.8%
- viability, T/C [35]: 75.8%
- viability, T/C [36]: 68.3%

Structure (SMILES): O=C(Nc1ccc(O)c(NS(=O)(=O)c2ccc(F)cc2)c1)c1ccc(-c2ccccc2)cc1 + COC1C(OC(N)=O)C(O)C(Oc2ccc3c(O)c(NC(=O)c4ccc(O)c(CC=C(C)C)c4)c(=O)oc3c2C)OC1(C)C
- IC50 (second compound 0.0316 µM): > 10 µM
- IC50 (second compound 0.1 µM): > 10 µM
- IC50 (second compound 0.316 µM): > 10 µM
- IC50 (second compound 1 µM): > 10 µM
- IC50 (second compound 3.16 µM): > 10 µM
- IC50 (second compound 10 µM): > 10 µM
- viability, T/C [1]: 118%
- viability, T/C [2]: 105%
- viability, T/C [3]: 100%
- viability, T/C [4]: 119%
- viability, T/C [5]: 99%
- viability, T/C [6]: 69.4%
- viability, T/C [7]: 94.3%
- viability, T/C [8]: 93.8%
- viability, T/C [9]: 119%
- viability, T/C [10]: 99.6%
- viability, T/C [11]: 87.9%
- viability, T/C [12]: 61.9%
- viability, T/C [13]: 92.8%
- viability, T/C [14]: 98.3%
- viability, T/C [15]: 113%
- viability, T/C [16]: 95.5%
- viability, T/C [17]: 91.8%
- viability, T/C [18]: 73.1%
- viability, T/C [19]: 90.9%
- viability, T/C [20]: 85.3%
- viability, T/C [21]: 91.9%
- viability, T/C [22]: 98.9%
- viability, T/C [23]: 112%
- viability, T/C [24]: 89.3%
- viability, T/C [25]: 95.5%
- viability, T/C [26]: 93.9%
- viability, T/C [27]: 92.9%
- viability, T/C [28]: 93.8%
- viability, T/C [29]: 89.4%
- viability, T/C [30]: 76.3%
- viability, T/C [31]: 82.6%
- viability, T/C [32]: 78.8%
- viability, T/C [33]: 97.1%
- viability, T/C [34]: 94.5%
- viability, T/C [35]: 86.8%
- viability, T/C [36]: 79.7%

Structure (SMILES): O=c1[nH]cc(F)c(=O)[nH]1 + COC1C(OC(N)=O)C(O)C(Oc2ccc3c(O)c(NC(=O)c4ccc(O)c(CC=C(C)C)c4)c(=O)oc3c2C)OC1(C)C
- IC50 (second compound 0.0316 µM): > 10 µM
- IC50 (second compound 0.1 µM): > 10 µM
- IC50 (second compound 0.316 µM): > 10 µM
- IC50 (second compound 1 µM): > 10 µM
- IC50 (second compound 3.16 µM): > 10 µM
- IC50 (second compound 10 µM): > 10 µM
- viability, T/C [1]: 97.9%
- viability, T/C [2]: 76.6%
- viability, T/C [3]: 91.9%
- viability, T/C [4]: 102%
- viability, T/C [5]: 99.3%
- viability, T/C [6]: 87.7%
- viability, T/C [7]: 99.2%
- viability, T/C [8]: 99%
- viability, T/C [9]: 102%
- viability, T/C [10]: 84.2%
- viability, T/C [11]: 82.7%
- viability, T/C [12]: 73.3%
- viability, T/C [13]: 92.4%
- viability, T/C [14]: 116%
- viability, T/C [15]: 89.5%
- viability, T/C [16]: 81.7%
- viability, T/C [17]: 75.3%
- viability, T/C [18]: 70.4%
- viability, T/C [19]: 76.6%
- viability, T/C [20]: 85.4%
- viability, T/C [21]: 80.3%
- viability, T/C [22]: 90.2%
- viability, T/C [23]: 92.8%
- viability, T/C [24]: 64.3%
- viability, T/C [25]: 94.2%
- viability, T/C [26]: 94.3%
- viability, T/C [27]: 89.7%
- viability, T/C [28]: 103%
- viability, T/C [29]: 75.2%
- viability, T/C [30]: 70.4%
- viability, T/C [31]: 78.8%
- viability, T/C [32]: 88.1%
- viability, T/C [33]: 93%
- viability, T/C [34]: 80.6%
- viability, T/C [35]: 94.3%
- viability, T/C [36]: 71.5%
